{"source": "patent US20130345073A1", "about": "“USE OF ALPHA-2-MACROGLOBULIN FOR DETERMINING OSTEONECROSIS DISEASE STATUS AND FOR SCREENING THERAPEUTIC AGENTS FOR PREVENTING OR TREATING OSTEONECROSIS” (priority 2012, published 2013)", "key": {"[1]": {"test_system": "A2M gene expression in human umbilical vein endothelial cells (HUVEC)", "experiment": "A2M gene expression in treated HUVEC cells (qPCR)", "type": "cell-based", "conditions": "for effect on A2M overexpression induced by dexamethasone: combined with dexamethasone, PD98059 20 μM, withaferin 1 μM (FIG. 4D)", "from_the_text": "HUVECs were purchased from Lonza (Walkersville, Md., USA) and cultured in endothelial basal medium (EBM-2media (Lonza) supplemented with microvascular additives (excluding hydrocortisone): human endothelial growth factor, 5% fetal bovine serum (FBS), vascular endothelial growth factor, human fibroblast growth factor type B, R3 insulin-like growth factor 1, ascorbic acid, heparin and the appropriate antibiotics gentamicin and amphotericin B (as per the supplier's protocol). HUVECs cells were cultured to near confluence (80%), trypsinized and seeded on 6 wells plates (10^5 cells/well). After 24 h incubation, cells were treated with dexamethasone (0.25 to 1 mM, Sigma-Aldrich, St-Louis, Mo., USA) for different time periods (between 4h to 48h). For experiments relating to the signaling pathways, different inhibitors were used: PD98059 (20 μM, Sigma) a MAPK inhibitor; withaferin (1 μM, Tocris, Bristol, UK), an NFkB PI3K inhibitor, and thrombin (1.5 U/ml; Calbiochem, San Diego, Calif., USA) an NFkB agonist. After incubation cells were harvested and RNA extracted using Trisol® (Invitrogen, Burlington, ON, Canada). RNA were then reverse transcribed using high capacity RNA to cDNA kit (Applied biosystems, Carlsbad, Calif., USA). A2M expression levels were then determined by qPCR using Taqman probes and master mix (Applied Biosystems)\nFirst, a dose response curve of HUVEC cells treated 48h using different concentration of Dex (dexamethasone) (0.1 mM to 1 mM) was generated. […] Then, a time response curve (4h to 24h) of HUVEC cells treated with 1 mM dexamethasone was generated. […] The effect of dexamethasone, PD and whitaferin on A2M expression of HUVEC cells was also determined."}, "[2]": {"test_system": "Wistar Kyoto rats", "conditions": "male, rat, in vivo, 6 months", "description": "(§1) Experimental animals and their maintenance. Forty Wistar Kyoto (WKY) rats (ages 4 weeks old) were purchased from Charles River Laboratories (Pointe-Claire, QC, Canada). The rats were tagged and housed in plastic cages (2 to 4 animals per cage) under standard laboratory conditions with a 12-hour dark/12-hour light cycle, a constant temperature of 20° C., and humidity of 48%. Food and water were provided ad libitum with a standard rodent diet. The weight of the rats were followed before and after the implant of a prednisone pellet for the first 3 consecutive weeks and then every month until the end of the experiment. All experiments were conducted under an animal protocol approved by the McGill Animal Care Department.\nSlow-release prednisone pellets (Innovative Research of America, Sarasota Florida, USA) were implanted subcutaneously into 24 Wistar Kyoto rats (12 males and 12 females rats) at the age of 5 weeks. […]\nThe rats were sacrificed with an overdose of ketamine/xylazine at the age of 30 weeks. […] Tissue samples were sectioned parasagitally with a rotary microtome at 4 to 5 microns thickness, stained with hematoxylin and eosin and evaluated by light microscopy.\nThe tissue samples were analyzed in a blinded fashion by two experienced bone pathologists. […]"}, "[3]": {"test_system": "Fisher and Wistar Kyoto (WK) rats", "conditions": "rat, in vivo", "description": "as §1, with “Eighteen Wistar” for “Experimental animals and their maintenance. Forty Wistar”, “(ages 12-16 weeks old) and eighteen Fisher (ages 12-16” for “(ages 4”\nSlow-release prednisone pellets (Innovative Research of America, Sarasota Florida, USA) were implanted subcutaneously into 12 Wistar Kyoto rats (all males) and 12 Fisher rats (all males) at the age of 8-12 weeks. Each pellet was implanted underneath the skin on the lateral side of the neck by surgically making an incision and developing a pocket about 2 cm beyond the incision site. The pellet was placed in the pocket and the incision was sutured. Based on the manufacturer's instructions the pellet releases a constant dose of the drug subcutaneously. To maintain a constant dosage during the 6 month period of the experiment, second and third pellet implantations were performed using the same procedure at 2 and 3 months respectively. The average dose release from the pellet was equivalent to 1.5 mg/kg/day for the period of 6 months. The dose of corticosteroids and the duration of treatment were chosen based on clinical experience. For the control group, 6 age-matched Wistar Kyoto (all males) and 6 age-matched Fisher (all males) rats received placebo pellets (Innovative Research of America) introduced through the same surgical technique.\nThe rats were sacrificed with an overdose of ketamine/xylazine at the age of 32-36 weeks. Tissue samples were obtained from the proximal femur containing the femoral head. Some samples were put in RNALater™ (QIAGEN Inc., Mississauga, ON, Canada) for RNA extraction and some samples were fixed for histological examination. Bone samples were fixed in 10% neutral buffered formalin, then decalcified in 4% ethylenediamine tetraacetic acid (pH 7.2) (Sigma-Aldrich, St. Louis, Mo., USA). The specimens were processed routinely and embedded in paraffin. Tissue samples were sectioned parasagitally with a rotary microtome at 4 to 5 microns thickness, stained with hematoxylin and eosin and evaluated by light microscopy.\nThe tissue samples were analyzed in a blinded fashion by two experienced bone pathologists. […] While the development of ON proceeds through various clinically identifiable stages, it was preferable for this study to detect early as well as the late stages of the condition. With this objective in mind, the criteria of Arlet [Arlet, 1993] was adopted namely degeneration, necrosis, and disappearance of marrow cells as well as the nuclear disappearance and hypochromasia of trabecular osteocytes as early signs of ON [Arlet, 1993]. Early signs of ON was also considered when apoptosis occurred in the osteocytes and osteoblasts. Positivity for apoptosis was defined by the authors as more than three osteocytes and/or osteoblasts recognized in a high magnification field based on previous studies [Weinstein et al, 2000; Shibahara et al., 2000].\nTerminal dexoynucleotidyl transferase (TdT) mediated deoxyuridine triphosphate biotin nick end labeling (TUNEL) was used to detect fragmented DNA known to be associated with apoptotic cell death. TUNEL assay on paraffin-embedded tissue sections was performed with the DeadEnd™ Colorimetric TUNEL System (Promega, Madison, Wis., USA) as recommended by the manufacturer. […]"}, "[4]": {"test_system": "Fisher and Wistar Kyoto (WK) rats", "experiment": "Alpha-2-Macroglobulin (A2M) level in the blood by rat A2M ELISA", "type": "in vivo", "excerpt": "Slow-release prednisone pellets (Innovative Research of America, Sarasota Florida, USA) were implanted subcutaneously into 12 Wistar Kyoto rats (all males) and 12 Fisher rats (all males) at the age of 8-12 weeks. Each pellet was implanted underneath the skin on the lateral side of the neck by surgically making an incision and developing a pocket about 2 cm beyond the incision site. The pellet was placed in the pocket and the incision was sutured. Based on the manufacturer's instructions the pellet releases a constant dose of the drug subcutaneously. To maintain a constant dosage during the 6 month period of the experiment, second and third pellet implantations were performed using the same procedure at 2 and 3 months respectively. The average dose release from the pellet was equivalent to 1.5 mg/kg/day for the period of 6 months. The dose of corticosteroids and the duration of treatment were chosen based on clinical experience. For the control group, 6 age-matched Wistar Kyoto (all males) and 6 age-matched Fisher (all males) rats received placebo pellets (Innovative Research of America) introduced through the same surgical technique. All rats were weighed upon their entry into the animal facility and were then weighed on a weekly basis until the end of the experimental period. Serum glucose measurements were performed at 2 week intervals via saphenous venipuncture using a portable glucometer (ContourTM glucometer, Bayer). Furthermore, 1 ml of whole blood was collected from each animal once a month via sublingual venipuncture under general anesthesia following a previously described technique. Following venipuncture, the blood was transferred to standard EDTA tubes, centrifuged for 8 minutes at 3600 rpm and the serum was separated and initially stored at -20° Celsius. Monthly serum […] concentrations were determined using a Rat Alpha 2-Marcoglobulin Enzyme Linked Immunoassay (ELISA) (Kamiya Biomedical Company, Seattle, USA) according to the manufacturer's instructions. This measurement was performed by an author blinded to treatment allocation. Fisher and Wistar Kyoto (WK) rats received steroid/placebo treatment for 5 and 6 months, respectively and blood was collected monthly. The Alpha-2-Macroglobulin […]) level in the blood was detected using rat […] ELISA kit (Immunology Consultants Laboratory, USA). Rats were divided into groups based on the treatment as well as the results from histopathology and TUNEL evaluation. AVN(+) was judged to be either TUNEL (+) or (++), or AVN(-) by histopathology study on at least one hip. […] However, as shown on FIG. 3C, the […] level in the blood of steroid-treated Fisher rats (only those considered AVN(+)) increased at 2 months after steroid treatment, and they were consider AVN(+). […]"}, "[5]": {"test_system": "Fisher and WK rats", "experiment": "Micro-computerized tomography scanning of femoral head cross-sections", "type": "in vivo, rat", "description": "At the conclusion of the 180 day experimental period, all prednisone and placebo animals were euthanized via brief isoflurane exposure followed by cardiac puncture. Immediately following euthanasia, both femurs in each animal were dissected, with care taken to preserve the integrity of the femoral cartilage during hip disarticulation. The femurs were then osteotomized at the mid-diaphysis and the proximal portion was immersed initially in 4% paraformaldehyde for 24 hours, washed with sterile phosphate buffered saline (PBS) for the following 48 hours, and then preserved in PBS at −5° Celsius.\nMicro computed-tomography (μCT) scanning was performed on each harvested femur using a Skyscan1172 instrument equipped with a 1.3 Mp camera (Skyscan, Kontich, Belgium). […] 2-dimensional serial cross sections were assembled into 3D reconstructions and analyzed using Skyscan™ software (CTAn version 2.0.0.1) supplied with the instrument. […]\nIn the present example, an analysis of the epiphyseal trabecular bone adjacent to the subchondral plate was performed. […] This shape permitted the largest area of epiphyseal bone to be measured without artefact from the adjacent rodent growth plate or cortical cap. […]\nFour widely utilized morphometric indices measuring bone volume and bone connectivity were measured from the binarized 3-dimensional volume of interest. […] Total bone porosity (TBP) was also measured. […]"}, "[6]": {"test_system": "Fisher and Wistar Kyoto (WK) rats", "conditions": "male, rat, in vivo, 5 months"}}, "note": "Where two headings read alike, the source gives them in different places.", "data": [{"smiles": "COc1cccc(-c2cc(=O)c3ccccc3o2)c1N", "note": "[PD, PD98059]", "values": [{"measurement": "effect on A2M overexpression induced by dexamethasone", "setting": "[1]; HUVEC", "value": "repression of A2M gene expression"}]}, {"smiles": "C[C@]12C=CC(=O)C=C1CC[C@@H]1[C@@H]2C(=O)C[C@@]2(C)[C@H]1CC[C@]2(O)C(=O)CO", "note": "[Prednisone, prednisone]", "values": [{"measurement": "incidence of the disease (ON)", "setting": "[2]", "value": "up to 75%"}, {"measurement": "Total TUNEL(++) hips", "setting": "[3]; male, Wistar Kyoto, 6 months", "value": 9}, {"measurement": "Total TUNEL(−) hips", "setting": "[3]; male, Wistar Kyoto, 6 months", "value": 1}, {"measurement": "number of hips AVN(+) TUNEL(−)", "setting": "[3]; male, Wistar Kyoto, 6 months", "value": 1}, {"measurement": "number of hips AVN(−) TUNEL(+)", "setting": "[3]; male, Wistar Kyoto, 6 months", "value": 1}, {"measurement": "number of hips AVN(−) TUNEL(++)", "setting": "[3]; male, Wistar Kyoto, 6 months", "value": 2}, {"measurement": "apoptosis (TUNEL positive cells) in bilateral femora", "setting": "[3]", "value": "more profound"}, {"measurement": "A2M level in the blood", "setting": "[4]; Fisher rats, 5 months after the beginning of the steroid treatment (FIG. 3E)", "value": "declined"}, {"measurement": "A2M level in the blood", "setting": "[4]; steroid-treated Fisher rats AVN(+), at 2 months after steroid treatment (FIG. 3C)", "value": "increased"}, {"measurement": "time of peak A2M level in the blood after the beginning of the treatment", "setting": "[4]; steroid-treated WK rats, all AVN(+) (FIG. 3D)", "value": 3, "unit": "month"}, {"measurement": "A2M level in the blood", "setting": "[4]; steroid-treated WK rats, at least 6 months after the beginning of the treatment (FIG. 3E)", "value": "remained higher than placebo-treated group"}, {"measurement": "micro-CT findings of femoral head", "setting": "[5]; Fisher rats following steroid administration (FIG. 5A)", "value": "no articular erosion"}, {"measurement": "rats with subchondral porosity, small and erratic trabeculae and isotropic trabecular arrangement", "setting": "[5]; steroid-treated WK rats (FIG. 5B)", "value": "9 out of 12"}, {"measurement": "Total TUNEL(++) hips", "setting": "[6]", "value": 7}, {"measurement": "Total TUNEL(−) hips", "setting": "[6]", "value": 2}, {"measurement": "number of hips AVN(+) TUNEL(−)", "setting": "[6]", "value": 1}]}, {"smiles": "C[C@@H]1C[C@H]2[C@@H]3CCC4=CC(=O)C=C[C@]4(C)[C@@]3(F)[C@@H](O)C[C@]2(C)[C@@]1(O)C(=O)CO", "note": "[dexamethasone]", "values": [{"measurement": "concentration of maximum effect on A2M expression", "setting": "[1]; HUVEC treated 48h, dose response 0.1 mM to 1 mM (FIG. 4A)", "value": 0.5, "unit": "mM"}, {"measurement": "time of maximum effect on A2M expression", "setting": "[1]; HUVEC, 1 mM dexamethasone, time response 4h to 24h (FIG. 4B)", "value": 24, "unit": "h"}]}, {"smiles": "CC1=C(CO)C(=O)O[C@@H]([C@@H](C)[C@H]2CC[C@H]3[C@@H]4C[C@H]5O[C@]56[C@@H](O)C=CC(=O)[C@]6(C)[C@H]4CC[C@]23C)C1", "note": "[whitaferin, withaferin]", "values": [{"measurement": "effect on A2M overexpression induced by dexamethasone", "setting": "[1]; HUVEC", "value": "repression of A2M gene expression"}]}]}
